The numbers were not newly measured in patent US20220143227A1, “Method of Treatment of Neuroendocrine Tumors That Over-Express Somatostatatin Receptors” (ADVANCED ACCELERATOR APPLICATIONS, priority 2015, published 2022), which cites them from elsewhere.

Like-named read-outs stand apart in the source and are kept apart here.

The subject of series [1] is human xenograft tumor model of NET. The following applies: in vivo.
For series [2] the following is noted: human, in vivo.
The subject of another series is lymphocytes. The following applies: B- versus T-lymphocytes.
A further series concerns pos-tdocetaxel CRPC. The following applies: phase III trial.
Series [3] relates to progressive neuroendocrine tumors of pancreatic origin, and NETs of gastrointestinal (GI) or lung origin. To be noted: Phase 3 trials.

Consider `C[C@@H](O)[C@H](NC(=O)[C@@H]1CSSC[C@H](NC(=O)[C@@H](Cc2ccccc2)NC(=O)CN2CCN(CC(=O)[O-])CCN(CC(=O)[O-])CCN(CC(=O)[O-])CC2)C(=O)N[C@@H](Cc2ccc(O)cc2)C(=O)N[C@H](Cc2c[nH]c3ccccc23)C(=O)N[C@@H](CCCCN)C(=O)N[C@@H]([C@@H](C)O)C(=O)N1)C(=O)O.[177Lu+3]` [Lutathera, [177]Lutetium-DOTA[O]-Tyr[3]-Octreotate], for which, in series [1], the “CD86+ APC infiltration” value is listed as “increased CD86+ APC infiltration” and the “expression of CD86 on APC” value was “increased expression of CD86”. The “severe hematologic toxicity Grade 3-4” value in series [2] was 3.1 % of the cases. Besides, in the series with lymphocytes, the “lymphocyte toxicity, specificity” value is listed as “more specific to B-lymphocytes”.
“ipilimumab: antibody that targets the CTLA-4/B7 receptor complex, approved for unresectable or metastatic melanoma”: in the series on pos-tdocetaxel CRPC, the “improvement in OS with addition of ipilimumab to RT” value is “no significant improvement in OS”. The “abscopal effect among patients with local response” value in the series on advanced melanoma (13 patients with local response) is recorded as 85%. In the series on advanced melanoma (21 patients, RT after ipilimumab progression), the no local regression is recorded as 38%. The entries for the “median OS” value in the series on advanced melanoma (all 21 patients), in the series with advanced melanoma (patients with abscopal responses) and in the series on advanced melanoma (patients without abscopal responses) were 13 months, 22.4 months and 8.3 months, respectively.
Regarding `CO[C@H]1C[C@@H]2CC[C@@H](C)[C@@](O)(O2)C(=O)C(=O)N2CCCC[C@H]2C(=O)O[C@H]([C@H](C)C[C@@H]2CC[C@@H](OCCO)[C@H](OC)C2)CC(=O)[C@H](C)/C=C(\C)[C@@H](O)[C@@H](OC)C(=O)[C@H](C)C[C@H](C)/C=C/C=C/C=C/1C` [Everolimus], in series [3], the PFS is recorded as 11 months.
